Test results as given in patent publication US10961180B2, “Branched trialkyl amine oxides” (Eastman Chemical Company, priority 2018, dated 2021).

Columns and labels:
[1] = Stain removal in cold water, swatch brightness, simple laundry liquid; details: 0.05% active additive, compared to LAO
Protocol: Amine oxides with linear and branched hydrophobes were compared in a screen for stain removal in cold water. Simple laundry liquid formulations were made that included only surfactants and builder.
Standard stain swatches were purchased from Testfabrics, Inc. (West Pittston, Pa.). […] The swatches were pre-cut into 2 inch squares. The test formulation was diluted with DI water to 0.06% total surfactant to make the wash solution. Additives were added at a final concentration of 0.05% active in the wash solution. Stained fabric swatches were added to the wash solution, washed and rinsed at 20° C., and air-dried. The average swatch brightness (L*) for each treatment, and standard deviation, are reported for 3 replicates.

[2] = Salt thickening: viscosity of SLS/SLES/amine oxide formulation vs NaCl content; type: physicochemical; details: 1.4% amine oxide, 4.3% SLS, 4.3% SLES, shear rate 3/s
Protocol: The viscosity (cP; shear rate 3/s) of a simple formulation was measured as the salt concentration varied from 0 to 5 wt %.

zein protein = test system: zein protein; parameters: species or system corn; details: 1% surfactant solution, 30 C, 30 min, triplicate
Protocol: For the test, 0.0750 g of zein protein is transferred into a 1.5 mL centrifuge tube. To this 1.5 mL of 1% surfactant solution is added, mixed, and placed in a 30 C incubator with mild stirring for 30 minutes. After 30 minutes has elapsed, the tube is centrifuged for 30 min at 3600 rpm. The solution is filtered through a pre-weighed 8 micron filter paper, and then dried overnight in a 50° C. oven. The insoluble zein residue is then weighed and the wt % Zein dissolved is calculated using the equation below. Each solution is analyzed in triplicate. The Zein score is normalized to a standard included in each set of tests, in this case LAE10; (% zein dissolved=(total zein added−total zein after drying÷Total zein added)×100).

[3] = Foam height, high shear (Waring blender) in deionized water; type: physicochemical; details: for Foam volume (ml) 5 min / Foam volume (ml) Initial: 0.05 wt % in deionized water; for Foam volume (ml) 5 min: after 5 min; for Foam volume (ml) Initial: blended High 30 s
Protocol: The surface foam volume and persistence of the amine oxides with linear and branched hydrophobes from Examples 43 and 44 were compared. A 0.05 wt % (actives basis) solution of the test surfactant was made in deionized water. 250 ml of the test solution was added the beaker of a Waring blender, capped, and then blended on High for 30 seconds and immediately transferred to a 1 L graduated cylinder. The total volume of foam plus liquid, as well as the liquid layer alone was recorded. The foam and liquid volumes were recorded again after 5 minutes.

[4] = Draves Wetting Test (ASTM D2281-68), wet-out time; type: physicochemical; details: 0.05 wt % actives in DI water, average of 3
Protocol: The surface wetting ability of the amine oxides with linear and branched hydrophobes from Examples 43 to 45 were compared using the Draves Wetting Test (ASTM D2281-68). A 0.05 wt % (actives basis) solution of amine oxide in deionized (DI) water was used to determine the Draves wet-out time (WOT) in seconds. 0.75 g of surfactant was dispersed in 1,500 ml of DI water. The wet-out time (WOT) in seconds is recorded in Table 7 (average of 3 measurements). LAO is Lauramine oxide (linear hydrophobe), Sigma catalog number 40236.

[5] = Foaming in diluted commercial laundry liquid (Persil Original), Waring blender; type: physicochemical; details: for Difference: initial minus 5 min
Protocol: The surface foam volume and foam persistence of solutions of the amine oxides with linear and branched hydrophobes from Examples 25 and 26 were compared. A commercial laundry liquid was diluted in deionized water according to the dosing instructions; 4.2 ml/L Persil Original. The diluted detergent was supplemented with 0%, 2%, 5% (based on wt laundry liquid) of LAO or Branched C12 AO,(2,4-diethyl-N,N-dimethyloctan-1-amine oxide, Example 66), and the solutions mixed briefly and used immediately. 250 ml of each test solution was added the beaker of a Waring blender, capped, and then blended on High for 30 seconds and immediately transferred to a 1 L graduated cylinder. The total volume of foam plus liquid, as well as the liquid layer alone was recorded. The foam and liquid volumes were recorded again after 5 minutes. All tests were performed in triplicate.

Molecule	Zein score - normalized to LAE10 (zein protein)	Viscosity ([2]; NaCl 0.5 wt %) [cP]	Viscosity ([2]; NaCl 1.0 wt %) [cP]	Foam volume (ml) 5 min [3] [mL]	Wet out time [4] [s]	Difference ([5]; Persil + 2% amine oxide) [mL]	Difference ([5]; Persil + 5% amine oxide) [mL]	Foam volume (ml) Initial [3] [mL]	other results
CCCCC(CC)CC(C)C[N+](C)(C)[O-] (centres unmarked) [Example 43, 4-ethyl-N,N-2-trimethyloctan-1-amine oxide]	–	7	36	–	–	–	–	–	Foam in the wash solution [1]: very little foam; Viscosity ([2]; NaCl 4.0 wt %): 670 cP
CCCCCCCCCCCC[N+](C)(C)[O-] [LAO, N,N-dimethyl laurylamine oxide, reference compound]	–	2	11	500	33	54	6	–	–
4-ethyl-N,N-2-trimethyloctan-1-amine oxide [Example 43]	–	–	–	0	>300	–	–	267	% decrease ([3]; foam volume, initial to 5 min): 100%

Continued, in another order:

Zein score - normalized to LAE10 (zein protein)	Molecule	Viscosity ([2]; NaCl 0.5 wt %) [cP]	Viscosity ([2]; NaCl 1.0 wt %) [cP]	Foam volume (ml) 5 min [3] [mL]	Wet out time [4] [s]	Difference ([5]; Persil + 2% amine oxide) [mL]	Difference ([5]; Persil + 5% amine oxide) [mL]	Foam volume (ml) Initial [3] [mL]	other results
4.670	Linear alkylbenzene sulfonate [LABS]	–	–	–	–	–	–	–	–
0.586	Alkylpolyglucoside [APG]	–	–	–	–	–	–	–	–
0.018	CCCCC(CC)CC(CC)C[N+](C)(C)[O-] (centres unmarked) [Example 44, 2,4-diethyl-N,N-dimethyloctan-1-amine oxide]	–	–	0	>300	257	280	370	Initial foam volume ([5]; Persil Original 4.2 ml/L + 2% amine oxide (on wt laundry liquid)): 560 mL
